In test [1] the target is T1, hMC4-R (Homo sapiens, UniProt P32245).
T1 construct: expressed in transfected cells; host or cells: HEK293 cells
Briefly: Membrane binding assay, competition with fluorescence labeled NDP-alpha-MSH (fluorescence polarization). To be noted: HEK293 cell membrane preparations expressing human melanocortin receptor. The method, then:
A membrane binding assay is used to identify competitive inhibitors of fluorescence labeled NDP-alpha-MSH binding to HEK293 cell membrane preparations expressing human melanocortin receptors.
The test compound or unlabeled NDP-alpha-MSH is dispensed at varying concentrations to a 384 well microtiter plate. Fluorescence labeled NDP-alpha-MSH is dispensed at a single concentration, followed by addition of membrane preparations. The plate is incubated for 5 h at room temperature.
The degree of fluorescence polarization is determined with a fluorescence polarization microplate reader.

The target of test [2] is T1, hMC4-R. Briefly: Functional cellular cAMP assay in HEK293 cells (fluorescence polarization). Format: cell-based. To be noted: for EC50: HEK293 cells expressing human melanocortin receptor, cAMP production; for % activation functional assay: cAMP produced compared to stimulation with NDP-alpha-MSH. The method, then:
A functional cellular assay, based on competition between unlabeled cAMP and a fixed quantity of fluorescence labeled cAMP for a limited number of binding sites on a cAMP specific antibody, is used to discriminate melanocortin receptor agonists from antagonists by fluorescence polarization.
HEK293 cells expressing one of the human melanocortin receptors are transferred to 384 well microtiter plates, an appropriate amount of cAMP antibody is added, followed by the addition of different concentrations of the test compound to effect cAMP production. Cells are lysed and a fluorescence labeled cAMP conjugate is dispensed. The plate is read on a fluorescence polarization microplate reader and the amount of cAMP produced as a response to a test compound is compared to the production of cAMP resulting from stimulation with NDP-alpha-MSH.
To define antagonistic activity of a test compound, the compound is dispensed at different concentrations to cells stimulated by an appropriate amount of NDP-α-MSH. Inhibition of cAMP production is determined by comparing the inhibition of cAMP production of the test compound to the inhibition of cAMP production by a known inhibitor tested at the same concentrations.

Another test concerns male Wistar rats. Briefly: Spontaneous feeding paradigm, food intake in rats. The conditions noted are these: 10 mg/kg. The test is classed as in vivo, rat. The method, then:
Food intake in rats is measured after i.p. or p.o. administration of the test compound (see e.g. Chen, A. S. et al. Transgenic Res 2000 April; 9(2):145-54).
3-4 Hours following the onset of the light-phase, individually housed, male Wistar rats (200 -300 g) receive an ip injection or po application of test compound or vehicle in an administration volume of 2 ml/kg. Following the administration of substances (1-30 mg/kg), a pre-weighted amount of normal laboratory chow is placed into the food hopper. Food remaining is measured by hand at 1-2 hour intervals for up to 8 hours. Differences in food intake between test-compound and vehicle-treated rats are evaluated.
Selected Examples of the present invention were active in the rat model at 10 mg/kg after p.o. administration of the test compound using male Wistar rats (n=4-8).

SMILES strings stand for the structures.

T1 sequence (P32245 whole entry): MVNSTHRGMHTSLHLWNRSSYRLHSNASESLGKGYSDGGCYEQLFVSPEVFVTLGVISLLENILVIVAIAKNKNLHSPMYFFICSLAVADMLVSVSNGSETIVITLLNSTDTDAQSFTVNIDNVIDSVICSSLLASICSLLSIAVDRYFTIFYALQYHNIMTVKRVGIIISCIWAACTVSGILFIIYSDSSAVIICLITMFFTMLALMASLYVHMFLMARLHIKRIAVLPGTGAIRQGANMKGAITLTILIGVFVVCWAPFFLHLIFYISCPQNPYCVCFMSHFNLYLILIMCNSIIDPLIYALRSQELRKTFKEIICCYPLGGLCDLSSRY

`O=C(N[C@H](C=C1CCC(c2ccccc2CN2CCCC2=O)CC1)Cc1ccc(Cl)cc1)[C@H]1Cc2ccccc2CN1` (stereo partly shown) [Example 1] had an IC50 on hMC4-R [1] of 600 nM. Further, on hMC4-R [2], the EC50 came to 3300 nM and the “% activation functional assay” value is on record as 100%.
In turn, `O=C(N[C@@H](C=C1CCC(c2ccccc2CN2CCCC2=O)CC1)Cc1ccc(Cl)cc1)[C@H]1Cc2ccccc2CN1` (stereo partly shown) [Example 2] came in with an IC50 at hMC4-R [1] of 300 nM. At hMC4-R [2], the EC50 turned out to be 300 nM and the “% activation functional assay” value is on record as 97%.
Molecule `O=C(N[C@H](C=C1CCN(c2ccccc2CN2CCCC2=O)CC1)Cc1ccc(Cl)cc1)c1cc(=O)c2ccccc2o1` [Example 17] yielded an IC50 at hMC4-R [1] of 3100 nM. On hMC4-R [2], the “% activation functional assay” value was “no activation”.
As to `O=C(N[C@@H](C=C1CCC(c2ccccc2CN2CCCC2=O)CC1)Cc1ccc(Cl)cc1)c1cc(=O)c2ccccc2o1` (stereo partly shown) [Example 18], on hMC4-R [1], the IC50 was 1000 nM. Besides, the “% activation functional assay” value at hMC4-R [2] is given as “no activation”.
As to `COc1ccc2oc(C(=O)N[C@@H](C=C3CCC(c4ccccc4CN4CCCC4=O)CC3)Cc3ccc(Cl)cc3)cc(=O)c2c1` (stereo partly shown) [Example 34], the “increase in cumulative food intake compared to vehicle” value in the test with male Wistar rats (2 hours following administration, p=0.048, n=4) is recorded as 3100%; in the test on male Wistar rats (4 hours following administration, p=0.092, n=4) it was 460%; in the test on male Wistar rats (7 hours following administration, p=0.047, n=4), 151%.

For the origin of these results see patent US20070155783A1, “Substituted cyclohexyl and piperidinyl derivates as melanocortin-4 receptor modulators” (priority 2003, published 2007).
